Holding throughout (assay type): cell-based
The target in assay [1] is T1, Human P2X4 receptor (P2X4R) (Homo sapiens, UniProt Q99571).
T1 construct: expressed in transfected cells; host or cells: HEK-293
T1 sequence (Q99571 1-388): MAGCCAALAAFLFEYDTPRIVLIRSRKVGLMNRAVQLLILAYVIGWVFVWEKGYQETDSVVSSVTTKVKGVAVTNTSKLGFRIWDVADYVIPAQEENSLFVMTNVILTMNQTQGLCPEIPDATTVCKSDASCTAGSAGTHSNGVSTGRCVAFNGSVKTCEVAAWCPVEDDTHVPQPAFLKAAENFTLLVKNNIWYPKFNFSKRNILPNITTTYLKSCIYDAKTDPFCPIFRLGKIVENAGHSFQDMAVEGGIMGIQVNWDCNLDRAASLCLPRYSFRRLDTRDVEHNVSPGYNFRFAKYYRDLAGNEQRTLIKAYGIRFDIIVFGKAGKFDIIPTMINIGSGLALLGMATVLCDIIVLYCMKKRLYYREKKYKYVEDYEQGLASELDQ
Put plainly: Receptor-mediated calcium entrance assay (Calcium Assay), P2X4R transfected HEK-293 cells. As to conditions: HEK293, compound at 5 μM, 1 mM ATP stimulus, read-out: Percentage of activity remains in the presence of the compound at 5 μM, P2X4R (Calcium Assay). The text has this: (§1) Human P2X1 receptor (P2X1R) is a member of P2X family. […] Thus, the calcium assay was used. In the calcium assay, P2X receptor activation leads to opening of ion channels, which increases intracellular calcium concentration. The increased intracellular calcium concentration can be detected by a calcium indicator dye such as Fluo-4 or Fluo-8. Molecular Probes™ Fluo-4, AM (Cat. No. F14201 from Fisher Scientific) was used in the assay. The procedures were similar as described in the Yo-Pro-1 assay until day 4. The construct of P2X1R for transient transfection to HEK-293 cells was the courtesy from Dr. Richard J. Evans laboratory (J. Biol. Chem. 279:9043-9055). After transfection and expression, on day 4 cells were washed twice by Ca-HBSS (The composition (in mM) was NaCl 135, HEPES 10, D-glucose 10, KCl 5.4, CaCl2 2, and MgCl2 1, pH to 7.4 by NaOH) and incubated in dye loading solution (The solution contained 2.5 μM Fluo-4, 1 mM probenecid, and 1× PowerLoad (Cat. No. P10020 from Fisher Scientific) in Ca-HBSS) for 70 minutes at 37° C. Then the extracellular loading dye was washed away and cells were incubated at Ca-HBSS containing 1 mM probenecid for 30 minutes. Before the final steps, probenecid was washed away with Ca-HBSS. The assay was performed by adding 25 μl of Ca-HBSS followed by 25 μl of various test compounds. At this point, the base level of fluorescence was obtained through the microplate reading—the base microplate reading for this assay. At the end, the stimulus (ATP at 20 μM was the final concentration for P2X1R) was added to activate the P2X1R. Activation of P2X1R opened the channel to allow influx of calcium, which was represented by fluorescence increases that were measured by the microplate device with excitation at 475 nm and emission wavelength in the range of 500-550 nm. The data were analyzed the same way as described before: The result of each well was first normalized by its corresponding base microplate reading. Then, the negative control signal was subtracted from. In the negative control, the test compound and the stimulus were replaced by Ca-HBSS. […] An average of six highest values of the plate (AVG) were considered as 100% and the value of each well was divided by AVG and presented as the relative values in percentages.
Human P2X4 receptor (P2X4R) construct (J. Biol. Chem. 290, 7930-7942) was transiently transfected to HEK-293 cells and the calcium assay was performed as described above. When 1 mM ATP was used as stimulus, an increased receptor mediated activity leading to intracellular calcium elevation can be seen in less than 10 minutes.

Assay [2] has as its target T2, Human P2X1 receptor (P2X1R) (Homo sapiens, UniProt P51575).
T2 construct: expressed in transfected cells; host or cells: HEK-293
T2 sequence (P51575 1-399): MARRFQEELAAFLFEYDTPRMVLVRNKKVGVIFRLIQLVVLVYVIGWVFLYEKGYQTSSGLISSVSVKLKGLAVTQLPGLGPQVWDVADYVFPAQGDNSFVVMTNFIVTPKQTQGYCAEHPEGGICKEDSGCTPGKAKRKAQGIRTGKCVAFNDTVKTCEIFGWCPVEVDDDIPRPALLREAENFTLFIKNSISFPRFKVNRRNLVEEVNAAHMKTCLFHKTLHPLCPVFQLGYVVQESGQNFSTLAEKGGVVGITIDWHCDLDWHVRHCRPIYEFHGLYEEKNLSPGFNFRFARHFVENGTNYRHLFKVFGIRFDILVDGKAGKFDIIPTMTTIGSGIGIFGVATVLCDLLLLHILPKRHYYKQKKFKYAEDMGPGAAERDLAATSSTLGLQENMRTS
Put plainly: Receptor-mediated calcium entrance assay (Calcium Assay), P2X1R transfected HEK-293 cells. The conditions noted are these: HEK293, compound at 5 μM, ATP 20 μM stimulus, read-out: Percentage of activity remains in the presence of the compound at 5 μM, P2X1R (Calcium Assay).
Excerpt: as §1

Assay [3] concerns the target T3, P2X2R (Homo sapiens, UniProt Q9UBL9).
T3 construct: expressed in transfected cells; host or cells: HEK-293
T3 sequence (Q9UBL9 1-471): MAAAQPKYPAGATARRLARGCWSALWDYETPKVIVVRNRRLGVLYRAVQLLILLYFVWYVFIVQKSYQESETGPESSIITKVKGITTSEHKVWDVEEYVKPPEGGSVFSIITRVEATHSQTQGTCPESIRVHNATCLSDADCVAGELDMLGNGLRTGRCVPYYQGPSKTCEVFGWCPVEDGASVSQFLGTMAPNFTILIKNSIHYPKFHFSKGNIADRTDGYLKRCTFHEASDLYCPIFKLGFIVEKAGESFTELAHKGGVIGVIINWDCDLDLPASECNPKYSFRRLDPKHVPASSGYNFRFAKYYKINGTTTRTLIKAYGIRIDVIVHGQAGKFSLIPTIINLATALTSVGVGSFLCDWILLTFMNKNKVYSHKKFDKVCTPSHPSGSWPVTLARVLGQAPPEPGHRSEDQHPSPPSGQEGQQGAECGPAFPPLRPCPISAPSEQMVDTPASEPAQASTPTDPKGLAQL
Kind of assay: Receptor-mediated calcium entrance assay (Calcium Assay), P2X2R. The conditions noted are these: compound at 5 μM, read-out: Percentage of activity remains in the presence of the compound at 5 μM, P2X2R (Calcium Assay).

The structures appear in SMILES notation.

In the case of `O=C(CCc1ccccc1)N1CCN(S(=O)(=O)c2ccc(NC3CCCCC3)cc2)CC1` [#33], the remaining activity at 5 µM is 83.9% in assay [1], 44.9% in assay [2] and 83.6% in assay [3].
For `CC(C)OC1CCN(c2ccc(S(=O)(=O)N3CCCC(NC(=O)CCc4ccccc4)C3)cc2)CC1` (stereo not drawn) [#39], the remaining activity at 5 µM in assay [1] turned out to be 68.2%; in assay [2] it was 74.5%; in assay [3], 86.6%.
For `O=C(CCc1ccccc1)NC1CCCN(S(=O)(=O)c2ccc(F)cc2)C1` (stereo not drawn) [#3], in that order: 67%, 33.3% and 98%.
The matching figures for `O=C(NCCc1ccccc1)C1CCCN(S(=O)(=O)c2ccc(N3CCCC3)cc2)C1` (stereo not drawn) [#25]: 61%, 66.1% and 70%.
The matching figures for `CCCCNc1ccc(S(=O)(=O)N2CCCC(NC(=O)CCc3ccccc3)C2)cc1` (stereo not drawn) [#15]: 63.8%, 70.1% and 80.4%.
As to `O=S(=O)(c1ccccc1)C1CN(S(=O)(=O)c2ccc(N3CCOCC3)cc2)C1` [#11], the remaining activity at 5 µM in assay [1] came out at 59.6%; in assay [2], 44.3%; in assay [3], 52%.
The matching figures for `CC(C)N(C(C)C)S(=O)(=O)c1ccc(N2CCCC(NC(=O)CCc3ccccc3)C2)cc1` (stereo not drawn) [#49]: 35.3%, 65.8% and 82.6%.
The matching figures for `CN(C)c1ccc(S(=O)(=O)N2CCCC(NC(=O)CCc3ccccc3)C2)cc1` (stereo not drawn) [#14]: 70.9%, 63.9% and 72.7%.
For `CCOc1ccc(S(=O)(=O)N2CCCC(NC(=O)CCc3ccccc3)C2)cc1` (stereo not drawn) [#37], in that order: 54.8%, 55.4% and 90.3%.
In the case of `CN1CCN(c2ccc(S(=O)(=O)N3CCCC(NC(=O)CCc4ccccc4)C3)cc2)CC1` (stereo not drawn) [#18], the remaining activity at 5 µM was 61.6% in assay [1], 62.3% in assay [2] and 73.1% in assay [3].
Turning to `NS(=O)(=O)c1ccc(N2CCCC(NC(=O)CCc3ccccc3)C2)cc1` (stereo not drawn) [#53], the remaining activity at 5 µM was determined as 49.7% in assay [1], 66.2% in assay [2] and 58% in assay [3].
In the case of `O=C(CCc1ccccc1)N1CCN(S(=O)(=O)c2ccc(F)cc2)CC1` [#30], the remaining activity at 5 µM was determined as 76.8% in assay [1], 70.1% in assay [2] and 67.5% in assay [3].
For `O=C(CCc1ccccc1)NC1CCCN(S(=O)(=O)c2ccc(N3CCCC3)cc2)C1` (stereo not drawn) [#13], the remaining activity at 5 µM in assay [1] was 88.8%; in assay [2], 54.2%; in assay [3], 67.4%.
For `O=C(CCc1ccccc1)NC1CCCN(S(=O)(=O)c2ccc(N3CCCCC3)cc2)C1` (stereo not drawn) [#5], in that order: 53.1%, 59.6% and 87.8%.
Regarding `O=C(CCc1ccccc1)NC1CCCN(S(=O)(=O)Cc2ccc(Br)cc2)C1` (stereo not drawn) [#8], the remaining activity at 5 µM in assay [1] amounted to 50.9%; in assay [2], 67%; in assay [3], 94.6%.
Turning to `O=C(CCc1ccccc1)N1CCN(S(=O)(=O)c2ccc(N3CCCCC3)cc2)CC1` [#34], the remaining activity at 5 µM in assay [1] is 53.8%; in assay [2], 59.3%; in assay [3], 65.2%.
Turning to `CC(C)S(=O)(=O)c1ccc(N2CCCC(NC(=O)CCc3ccccc3)C2)cc1` (stereo not drawn) [#7], the remaining activity at 5 µM in assay [1] came to 76.8%; in assay [2] it was 65.6%; in assay [3], 78.8%.
For `COCCOc1ccc(S(=O)(=O)N2CCCC(NC(=O)CCc3ccccc3)C2)cc1` (stereo not drawn) [#17], in that order: 77.6%, 60.9% and 64.9%.
The matching figures for `O=C(NCCc1ccccc1)C1CCN(S(=O)(=O)c2ccc(N3CCCCC3)cc2)CC1` [#20]: 50.6%, 75.4% and 68.1%.
Turning to `O=C(CCc1ccccc1)NC1CCCN(S(=O)(=O)c2ccc(N3CCC(F)(F)CC3)cc2)C1` (stereo not drawn) [#46], the remaining activity at 5 µM worked out at 75% in assay [1], 67.7% in assay [2] and 71% in assay [3].
Turning to `COc1ccc(S(=O)(=O)N2CCCC(NC(=O)CCc3ccccc3)C2)cc1` (stereo not drawn) [#2], the figures for the remaining activity at 5 µM in assay [1], in assay [2] and in assay [3] were 56.4%, 39.1% and 85.7%, respectively.
For `O=C(CCc1ccccc1)NC1CCCN(S(=O)(=O)c2ccc(N3CCOCC3)cc2)C1` (stereo not drawn) [#12], in that order: 69.1%, 52.8% and 64.8%.
Take `O=S(=O)(c1ccccc1)C1CN(S(=O)(=O)c2ccc(N3CCCCC3)cc2)C1` [#10]: the remaining activity at 5 µM in assay [1] came out at 69.5%; in assay [2], 51.5%; in assay [3], 69.3%.
As for `O=C(NCCc1ccccc1)C1CCN(S(=O)(=O)c2ccc(N3CCCC3)cc2)CC1` [#21], the remaining activity at 5 µM in assay [1] worked out at 31%; in assay [2] it was 50.2%; in assay [3] it was 94.3%.
For `O=C(CCc1ccccc1)NC1CCCN(c2ccc(S(=O)(=O)N3CCCCC3)cc2)C1` (stereo not drawn) [#54], in that order: 63.3%, 48.4% and 59.4%.
Turning to `CC(C)(C)OC(=O)N1CCN(c2ccc(S(=O)(=O)N3CCC(C(=O)NCCc4ccccc4)CC3)cc2)CC1` [#22], the remaining activity at 5 µM in assay [1] was determined as 42.1%; in assay [2], 59.2%; in assay [3], 85.8%.

(Values after patent publication US20220380310A1, “P2X7R ANTAGONISTS” (priority 2019, published 2022).)
